The record followed here is US10251408B2, “Catechin function enhancement method” (KYUSHU UNIVERSITY, NATIONAL UNIVERSITY CORPORATION, priority 2014, dated 2019).

Each structure is given as a SMILES string.

Experiment [1] deals with MCP-1. As to the kind of experiment: Fat tissue MCP-1 mRNA by real-time PCR in HF/HS diet-fed mice. The experiment is classed as in vivo, mouse. As to conditions: C57BL/6J mice; Yabukita 0.2% and/or eriodictyol 0.45 g/kg diet; 8 weeks; FIG. 5. An excerpt: Male C57BL/6J mice at 12 weeks of age were preliminarily kept for 1 week and then divided into 5 groups such that the average body weight was equal in all groups, i.e., a control (AIN-93G-based diet) group, a HF/HS (high-fat high-sucrose diet) group, a Yabukita (0.2%) (HF/HS+Yabukita) group, an eriodictyol (HF/HS+eriodictyol) group, and a Yabukita+eriodictyol (HF/HS+Yabukita+eriodictyol) group. A feed supplemented with Yabukita (0.2%) and eriodictyol (0.45 g/kg diet) was given to the mice. The feed was given in an amount of 4 g/day and the mice were kept for 8 weeks under ad libitum drinking conditions. After being fasted for 16 hours, the mice were sacrificed by abdominal aortic puncture under isoflurane anesthesia. The collected blood samples were allowed to stand at 37° C. for 2 hours to cause coagulation and then centrifuged at 4° C. at 2000×g for 15 minutes to collect serum fractions. The values of serum total cholesterol and LDL were measured. […] Yabukita and eriodictyol were examined for their effect on obesity in high-fat high-sucrose diet-fed obese model mice. […] After being measured for their body weight, the mice were fasted for 16 hours and then sacrificed by abdominal aortic puncture under isoflurane anesthesia. […] The values of serum total cholesterol and LDL were measured.
On the technique in general: In qPCR the cycle at which signal appears reflects the starting amount.

The test system of experiment [2] is low density lipoprotein receptor (LDLR). As to the kind of experiment: Liver LDLR mRNA by real-time PCR in HF/HS diet-fed mice. It counts as in vivo, mouse. As to conditions: HF/HS diet-fed C57BL/6J mice; Yabukita 0.2% and/or eriodictyol 0.45 g/kg diet; 8 weeks; FIG. 6. The text has this:
Male C57BL/6J mice at 12 weeks of age were preliminarily kept for 1 week and then divided into 5 groups such that the average body weight was equal in all groups, i.e., a control (AIN-93G-based diet) group, a HF/HS (high-fat high-sucrose diet) group, a Yabukita (0.2%) (HF/HS+Yabukita) group, an eriodictyol (HF/HS+eriodictyol) group, and a Yabukita+eriodictyol (HF/HS+Yabukita+eriodictyol) group. A feed supplemented with Yabukita (0.2%) and eriodictyol (0.45 g/kg diet) was given to the mice. The feed was given in an amount of 4 g/day and the mice were kept for 8 weeks under ad libitum drinking conditions. After being fasted for 16 hours, the mice were sacrificed by abdominal aortic puncture under isoflurane anesthesia. […] Yabukita and eriodictyol were examined for their effect on cholesterol metabolism-related gene expression in the liver of high-fat high-sucrose diet-fed obese model mice. C57BL/6J mice were preliminarily kept for 1 week and then divided into the respective groups such that the average body weight was equal in all groups. Each feed was given in an amount of 4 g/day and the mice were kept for 8 weeks under ad libitum drinking conditions. After being fasted for 16 hours, the mice were sacrificed by abdominal aortic puncture under isoflurane anesthesia.

Consider `O=C1C[C@@H](c2ccc(O)c(O)c2)Oc2cc(O)cc(O)c21` [eriodictyol], for which the “high-fat high-sucrose diet-induced increase in fat tissue MCP-1 expression level (mRNA)” value in experiment [1] is recorded as “no effect”. Moreover, the “mRNA expression level of LDLR in the liver” value in experiment [2] is “no effect”.
